Experimental findings from US20070135383A1, “Phospholipase inhibitors, including multi-valent phospholipase inhibitors, and use thereof, including as lumen-localized phospholipase inhibitors” (priority 2005, published 2007) are described below.

pIC50: −log10 of the molar value.

Experiment in all cases: Fluorimetric PPyrPM assay for group 1B PLA2 inhibition (Example 12)
Holding throughout (type): biochemical

Assay [1] deals with T1, porcine group 1B PLA2 (pps PLA2) (Sus scrofa, UniProt P00592).
T1 construct: purchased
Particulars: porcine pancreas secreted PLA2; for pIC50: read-out: ILYPSA IC50 pps PLA2; for inhibition at 15 µM: read-out: ILYPSA % inhibition at 15 μM pps PLA2. From the text:
(§1) In this example, a fluorimetric assay procedure was used to evaluate the indole and indole-related compounds of the invention as inhibitors of group 1B phospholipase A2 (PLA2) from human, mouse and porcine. A description of this assay is found in articles: Leslie, C C and Gelb, M H (2004) Methods in Molecular Biology “Assaying phospholipase A2 activity”, 284:229-242; Singer, A G, et al. (2002) Journal of Biological Chemistry “Interfacial kinetic and binding properties of the complete set of human and mouse groups I, II, V, X, and XII secreted phospholipases A2”, 277:48535-48549, which are incorporated herein as references.
(§2) In general, this assay used a phosphatidylmethanol substrate with a pyrene fluorophore on the terminal end of the sn-2 fatty acyl chain. Without being bound by theory, close proximity of the pyrenes from neighboring phospholipids in a phospholipid vesicle caused the spectral properties to change relative to that of monomeric pyrene. Bovine serum albumin was present in the aqueous phase and captured the pyrene fatty acid when it is liberated from the glycerol backbone owing to the PLA2-catalyzed reaction. However, a potent inhibitor can inhibit the liberation of pyrene fatty acid from the glycerol backbone. […] The effect of a given inhibitor and inhibitor concentration on human, mouse and porcine phospholipase was determined.
(§3) The following reagents and equipments were obtained from commercial vendors: • 1. Porcine group 1B phospholipase A2 • 2. 1-hexadecanoyl-2-(1-pyrenedecanoyl)-sn-glycero-3-phosphomethanol (PPyrPM) • 3. Bovine serum albumin (BSA, fatty acid free) • 4. 2-Amino-2-(hydroxymethyl)-1,3-propanediol, hydrochloride (Tris-HCl) • 5. Calcium chloride • 6. Potassium chloride • 7. Solvents: DMSO, toluene, isopropanol, ethanol • 8. Molecular Devices SPECTRAmax microplate spectrofluorometer • 9. Costar 96 well black wall/clear bottom plate
(§4) The following reagents were prepared: • 10. PPyrPM stock solution (1 mg/ml) in toluene:isopropanol (1:1) • 11. ILY104 inhibitor stock solution (10 mM) in DMSO • 12. 3% (w/v) bovine serum albumin (BSA) • 13. Stock buffer: 50 mM Tris-HCl, pH 8.0, 50 mM KCl and 1 mM CaCl2
The following procedure was performed to evaluate the inhibitory potency of the evaluated compounds. • 14. An assay buffer was prepared by adding 3 ml 3% BSA to 47 ml stock buffer. • 15. Solution A was prepared by adding serially diluted inhibitors to the assay buffer. Inhibitors were three-fold diluted in stock buffer in a series of 8 from 15 uM. • 16. Solution B was prepared by adding human, mouse or porcine PLA2 to the assay buffer. This solution was prepared immediately before use to minimize enzyme activity loss. • 17. Solution C was prepared by adding 30 ul PPyrPM stock solution to 90 ul ethanol, and then all 120 ul of PPyrPM solution was transferred drop-wise over approximately 1 min to the continuously stirring 8.82 ml assay buffer to form a final concentration of 4.2 uM PPyrPM vesicle solution. • 18. The SPECTRAmax microplate spectrofluorometer was set at 37° C. • 19. 100 ul of solution A was added to each inhibition assay well of a costar 96 well black wall/clear bottom plate • 20. 100 ul of solution B was added to each inhibition assay well of a costar 96 well black wall/clear bottom plate. • 21. 100 ul of solution C was added to each inhibition assay well of a costar 96 well black wall/clear bottom plate. • 22. The plate was incubated inside the spectrofluorometer chamber for 3 min. • 23. The fluorescence was read using an excitation of 342 nm and an emission of 395 nm.
Evaluated compounds were tested in duplicate and their values were averaged to plot the inhibition curve and calculate the IC50. Compared to uninhibited controls, lower fluorescent signal at an emission of 395 nm in test reactions evidenced inhibition of PLA2. […] Compounds initially found to be active were repeated to confirm their inhibitory activity. […]

The target of assay [2] is T2, human group 1B PLA2 (hps PLA2) (Homo sapiens, UniProt P04054).
T2 construct: made in house; host or cells: E. coli
As to conditions: human pancreas secreted PLA2; for pIC50: read-out: ILYPSA IC50 hps PLA2; for inhibition at 15 µM: read-out: ILYPSA % inhibition at 15 μM hps PLA2.
From the text: as §1, §2
(§5) Recombinant human and mouse group 1B PLA2 were cloned and expressed in E. coli as insoluble inclusion bodies. The inclusion bodies were isolated and purified by sonicating cell pellet in lysis buffer (50 mM Tris-HCl pH 7.0, 250 mM NaCl, 0.5% Triton 100), centrifugation at 12,000×g, and washing three times in washing buffer (20 mM Tris-HCl pH 7.0, 250 mM NaCl, 0.5% Triton 100). Then the inclusion bodies were dissolved in dissolving buffer (50 mM Tris-HCl pH 7.0, 250 mM NaCl, 6 M Guanidine-HCl, 1 mM DTT) and dialyzed four times against 10 volumes of refolding buffer (20 mM Tris-HCl pH 7.0, 250 mM NaCl, 0.5M Guanidine-HCl, 5% (w/w) Glycerol, 2 mM reduced glutathione and 0.4 mM oxidized glutathione) at 4° C. The correctly refolded proteins were concentrated using Amicon Stirred cell under nitrogen pressure (<70 psi) and dialyzed against 10 volumes of 50 mM Tris-HCl pH 7.0, 250 mM NaCl and 5% (w/w) glycerol. Human and mouse group 1B PLA2 were further purified by High S ion exchange and gel filtration columns.
as §3, §4
(§6) The following procedure was performed to evaluate the inhibitory potency of the evaluated compounds. • 14. An assay buffer was prepared by adding 3 ml 3% BSA to 47 ml stock buffer. • 15. Solution A was prepared by adding serially diluted inhibitors to the assay buffer. Inhibitors were three-fold diluted in stock buffer in a series of 8 from 15 uM. • 16. Solution B was prepared by adding human, mouse or porcine PLA2 to the assay buffer. This solution was prepared immediately before use to minimize enzyme activity loss. • 17. Solution C was prepared by adding 30 ul PPyrPM stock solution to 90 ul ethanol, and then all 120 ul of PPyrPM solution was transferred drop-wise over approximately 1 min to the continuously stirring 8.82 ml assay buffer to form a final concentration of 4.2 uM PPyrPM vesicle solution. • 18. […]

The target in assay [3] is T3, mouse group 1B PLA2 (mps PLA2) (Mus musculus, UniProt Q9Z0Y2).
T3 construct: made in house; host or cells: E. coli
Particulars: mouse pancreas secreted PLA2; for pIC50: read-out: ILYPSA IC50 mps PLA2; for inhibition at 15 µM: read-out: ILYPSA % inhibition at 15 μM mps PLA2.
From the text: as §1, §2, §5, §3, §4, §6

T3 sequence (Q9Z0Y2 23-146): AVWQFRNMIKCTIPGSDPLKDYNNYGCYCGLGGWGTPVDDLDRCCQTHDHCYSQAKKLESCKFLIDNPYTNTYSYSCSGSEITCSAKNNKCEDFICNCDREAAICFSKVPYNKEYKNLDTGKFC
T2 sequence (P04054 23-148): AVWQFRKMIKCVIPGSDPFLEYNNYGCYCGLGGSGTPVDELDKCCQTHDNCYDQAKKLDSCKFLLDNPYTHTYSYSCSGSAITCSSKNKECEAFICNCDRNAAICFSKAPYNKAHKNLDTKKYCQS
T1 sequence (P00592 23-146): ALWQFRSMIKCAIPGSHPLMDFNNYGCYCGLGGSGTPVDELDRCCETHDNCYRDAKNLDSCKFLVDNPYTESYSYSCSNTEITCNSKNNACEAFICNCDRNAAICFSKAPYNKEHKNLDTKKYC

By pIC50 is commonly meant the IC50 on a negative log10 scale, so that one unit is a factor of ten. For `Cc1c(C(=O)C(N)=O)c2c(OCC(=O)O)ccc([N+](=O)[O-])c2n1Cc1ccccc1` [ILY-IV-29], the pIC50 is 7.70 in assay [1], 5.89 in assay [2] and 6.48 in assay [3].
A word on the inhibition: it is the percentage by which the read-out fell short of the control. On to `Cc1c(C(=O)C(N)=O)c2c(OC(C(=O)O)c3ccccc3)cccc2n1Cc1ccccc1` (stereo not drawn) [ILY-IV-32, (3-Aminooxalyl-1-benzyl-2-methyl-1H-indol-4-yloxy)-phenyl-acetic acid], for which the results for the inhibition at 15 µM in assay [1], in assay [2] and in assay [3] were 38.5%, 41.7% and 47.5%, respectively.
For the compound `Cc1c(C(=O)C(N)=O)c2c(OC(CCC(=O)O)C(=O)O)cccc2n1Cc1ccccc1` (stereo not drawn) [ILY-IV-33, 2-(3-Aminooxalyl-1-benzyl-2-methyl-1H-indol-4-yloxy)-pentanedioic acid], the pIC50 in assay [1] was 5.42. Moreover, the inhibition at 15 µM in assay [2] was 35.9%; in assay [3], 50.3%.
Regarding `Cc1c(C(=O)C(N)=O)c2c(OCC(=O)O)ccc(N)c2n1Cc1ccccc1` [ILY-IV-35], the figures for the pIC50 in assay [1], in assay [2] and in assay [3] were 6.49, 5.05 and 5.76, respectively.
On the same counts, the results for `Cc1c(C(=O)C(N)=O)c2c(OCC(=O)O)ccc(NS(C)(=O)=O)c2n1Cc1ccccc1` [ILY-IV-37] are 6.55, 5.46 and 5.99.
For the compound `Cc1c(C(=O)C(N)=O)c2c(OC(C(N)=O)C(C)C)cccc2n1Cc1ccccc1` (stereo not drawn) [ILY-IV-45, 2-(3-(2-amino-2-oxoacetyl)-1-benzyl-2-methyl-1H-indol-4-yloxy)-3-methylbutanamide], in assay [1], the negative-log IC50 (pIC50) was 5.99. The inhibition at 15 µM came to 74% in assay [2] and 65.5% in assay [3].
Take `Cc1c(C(=O)C(N)=O)c2c(OC(CC(C)C)C(=O)O)cccc2n1Cc1ccccc1` (stereo not drawn) [ILY-IV-47, 2-(3-Aminooxalyl-1-benzyl-2-methyl-1H-indol-4-yloxy)-4-methyl-pentanoic acid]: the pIC50 in assay [1] was 7.70; in assay [2], 5.53; in assay [3] it was 5.61.
On to `Cc1c(C(=O)C(N)=O)c2c(OC(F)(C(=O)O)C(F)(F)Br)cccc2n1Cc1ccccc1` (stereo not drawn) [ILY-IV-55, 2-(3-(2-amino-2-oxoacetyl)-1-benzyl-2-methyl-1H-indol-4-yloxy)-3-bromo-2,3,3-trifluoropropanoic acid], for which the inhibition at 15 µM came to 74.5% in assay [1], 34% in assay [2] and 42.6% in assay [3].
For `COC(=O)C(Oc1cccc2c1c(C(=O)C(N)=O)c(C)n2Cc1ccccc1)C(=O)O` (stereo not drawn) [ILY-IV-59], in that order: 56.8%, 10.2% and 35.7%.
For `CCCCCCCCn1c(C)c(C(=O)C(N)=O)c2c(OCC(=O)O)cccc21` [ILY-V-2], the pIC50 was 7.52 in assay [1], 6.19 in assay [2] and 6.68 in assay [3].
On the same counts, the results for `Cc1c(C(=O)C(N)=O)c2c(OCC(=O)O)cccc2n1Cc1ccc(-c2ccccc2)cc1` [ILY-V-3] are 6.68, 5.90 and 6.11.
On the same counts, the results for `COc1cccc(Cn2c(C)c(C(=O)C(N)=O)c3c(OCC(=O)O)cccc32)c1` [ILY-V-8] are 7.40, 5.49 and 6.01.
As for `Cc1c(C(=O)C(N)=O)c2c(OCC(=O)O)cccc2n1Cc1ccc2ccccc2c1` [ILY-V-9], the pIC50 in assay [1] is 7.22; in assay [2] it was 5.68; in assay [3], 6.15.
Take `C=CCn1c(C)c(C(=O)C(N)=O)c2c(OCC(=O)O)cccc21` [ILY-V-10]: the pIC50 in assay [1] is 6.34; in assay [3], 5.49. For the same compound, the inhibition at 15 µM in assay [2] amounted to 64%.
In the case of `Cc1c(C(=O)C(N)=O)c2c(OCC(=O)O)cccc2n1CCCCCCCCSCCCCSCCCCCCCCn1c(C)c(C(=O)C(N)=O)c2c(OCC(=O)O)cccc21` [ILY-V-23, 2,2′-(1,1′-(8,8′-(butane-1,4-diylbis(sulfanediyl))bis(octane-8,1-diyl))bis(3-(2-amino-2-oxoacetyl)-2-methyl-1H-indole-4,1-diyl))bis(oxy)diacetic acid], the pIC50 in assay [1] was 5.95; in assay [2], 5.67; in assay [3], 6.26.
For `Cc1c(C(=O)C(N)=O)c2c(OCC(=O)O)cccc2n1CCCCCCCCCCCCSCCCCSCCCCCCCCCCCCn1c(C)c(C(=O)C(N)=O)c2c(OCC(=O)O)cccc21` [ILY-V-25, 2,2′-(1,1′-(12,12′-(Butane-1,4-diylbis(sulfanediyl))bis(dodecane-12,1-diyl))bis(3-(2-amino-2-oxoacetyl)-2-methyl-1H-indole-4,1-diyl))bis(oxy)diacetic acid], in that order: 6.72, 6.82 and 6.46.
For `Cc1c(C(=O)C(N)=O)c2c(OCC(=O)O)cccc2n1CCCCCCCCCCCCOc1ccccc1OCCCCCCCCCCCCn1c(C)c(C(=O)C(N)=O)c2c(OCC(=O)O)cccc21` [ILY-V-27, [3-Aminooxalyl-1-(12-{2-[12-(3-aminooxalyl-4-carboxymethoxy-2-methyl-indol-1-yl)-dodecyloxy]-phenoxy}-dodecyl)-2-methyl-1H-indol-4-yloxy]-acetic acid], in that order: 6.82, 6.82 and 6.70.
On the same counts, the results for `Cc1c(C(=O)C(N)=O)c2c(OCC(=O)O)cccc2n1CCCCCCCCCCCCSSCCCCCCCCCCCCn1c(C)c(C(=O)C(N)=O)c2c(OCC(=O)O)cccc21` [ILY-V-28, 2,2′-(1,1′-(12,12′-disulfanediylbis(dodecane-12,1-diyl))bis(3-(2-amino-2-oxoacetyl)-2-methyl-1H-indole-4,1-diyl))bis(oxy)diacetic acid] are 6.14, 6.22 and 6.00.
